Data from patent US20260130395A1, “Water Dispersible Botanical Compositions” (Aquila Black Limited, priority 2021, published 2026).

Legend:
[1] = Stability of cannabinoid entourage and Vitamin E components of the powder concentrate by LCMSMS; type: physicochemical; settings: powder stored at 21-25° C.
Description: At each time period, 0.05 g of powder was dissolved in 10 ml-15 of ethanol, diluted to fall within the analytical range, and injected into the LCMSMS for analysis.

[2] = Stability of cannabinoid compounds and Vitamin E components in Beverage 1 (AB White) by LCMSMS; type: physicochemical
Description: The stability of the plant-derived cannabinoid compounds and Vitamin E components of the beverage stored 8° C. and at room temperature (21-25° C.) were monitored, over a period of 570 days via Liquid Chromatography-tandem Mass Spectrometry [LCMSMS, Agilent 6590, C18, 3×50 mm, 2.7 m (Agilent InfinityLab Poroshell 120 EC-C18), Electrospray Ionization detector]. The LCMSMS was calibrated for 0-1000 ng/ml cannabinoids with the same resin material used in the preparation of the concentrates. At each time period, 100 ml of beverage was diluted with 10 ml of methanol and injected into the LCMSMS for analysis.

Compound: Cc1c(C)c2c(c(C)c1OC(=O)CCC(=O)O)CC[C@@](C)(CCC[C@H](C)CCC[C@H](C)CCCC(C)C)O2 [α-Tocopheryl succinate]
- Stability of Vitamin Es in Powder Concentrate ([1]; 0 days): 1.82 mg/g powder
- Stability of Vitamin Es in Powder Concentrate ([1]; 1 days): 1.81 mg/g powder
- Stability of Vitamin Es in Powder Concentrate ([1]; 2 days): 1.81 mg/g powder
- Stability of Vitamin Es in Powder Concentrate ([1]; 3 days): 1.81 mg/g powder
- Stability of Vitamin Es in Powder Concentrate ([1]; 5 days): 1.83 mg/g powder
- Stability of Vitamin Es in Powder Concentrate ([1]; 8 days): 1.90 mg/g powder
- Stability of Vitamin Es in Powder Concentrate ([1]; 9 days): 1.89 mg/g powder
- Stability of Vitamin Es in Powder Concentrate ([1]; 10 days): 1.87 mg/g powder
- Stability of Vitamin Es in Powder Concentrate ([1]; 11 days): 1.89 mg/g powder
- Stability of Vitamin Es in Powder Concentrate ([1]; 12 days): 1.87 mg/g powder
- Stability of Vitamin Es in Powder Concentrate ([1]; 15 days): 1.87 mg/g powder
- Stability of Vitamin Es in Powder Concentrate ([1]; 16 days): 1.83 mg/g powder
- Stability of Vitamin Es in Powder Concentrate ([1]; 17 days): 1.88 mg/g powder
- Stability of Vitamin Es in Powder Concentrate ([1]; 18 days): 1.77 mg/g powder
- Stability of Vitamin Es in Powder Concentrate ([1]; 19 days): 1.85 mg/g powder
- Stability of Vitamin Es in Powder Concentrate ([1]; 22 days): 1.78 mg/g powder
- Stability of Vitamin Es in Powder Concentrate ([1]; 23 days): 1.80 mg/g powder
- Stability of Vitamin Es in Powder Concentrate ([1]; 24 days): 1.90 mg/g powder
- Stability of Vitamin Es in Powder Concentrate ([1]; 25 days): 1.90 mg/g powder
- Stability of Vitamin Es in Powder Concentrate ([1]; 26 days): 1.76 mg/g powder
- Stability of Vitamin Es in Powder Concentrate ([1]; 29 days): 1.87 mg/g powder
- Stability of Vitamin Es in Powder Concentrate ([1]; 30 days): 1.80 mg/g powder
- Stability of Vitamin Es in Powder Concentrate ([1]; 60 days): 1.77 mg/g powder
- Stability of Vitamin Es in Powder Concentrate ([1]; 90 days): 1.83 mg/g powder
- Stability of Vitamin Es in Powder Concentrate ([1]; 120 days): 1.83 mg/g powder
- Stability of Vitamin Es in Powder Concentrate ([1]; 150 days): 1.89 mg/g powder
- Stability of Vitamin Es in Powder Concentrate ([1]; 180 days): 1.77 mg/g powder
- Stability of Vitamin Es in Powder Concentrate ([1]; 210 days): 1.80 mg/g powder
- Stability of Vitamin Es in Powder Concentrate ([1]; 240 days): 1.84 mg/g powder
- Stability of Vitamin Es in Powder Concentrate ([1]; 270 days): 1.87 mg/g powder
- Stability of Vitamin Es in Powder Concentrate ([1]; 300 days): 1.84 mg/g powder
- Stability of Vitamin Es in Powder Concentrate ([1]; 330 days): 1.83 mg/g powder
- Stability of Vitamin Es in Powder Concentrate ([1]; 360 days): 1.79 mg/g powder
- Stability of Vitamin Es in Powder Concentrate ([1]; 390 days): 1.87 mg/g powder
- Stability of Vitamin Es in Powder Concentrate ([1]; 420 days): 1.82 mg/g powder
- Stability of Vitamin Es in Powder Concentrate ([1]; 450 days): 1.80 mg/g powder
- Stability of Vitamin Es in Powder Concentrate ([1]; 480 days): 1.76 mg/g powder
- Stability of Vitamin Es in Powder Concentrate ([1]; 510 days): 1.76 mg/g powder
- Stability of Vitamin Es in Powder Concentrate ([1]; 540 days): 1.80 mg/g powder
- Stability of Vitamin Es in Powder Concentrate ([1]; 570 days): 1.77 mg/g powder
- Stability of Vitamin Es in AB White ([2]; stored at 8° C., 0 days): 12.8 µg/mL
- Stability of Vitamin Es in AB White ([2]; stored at 8° C., 1 days): 11.83 µg/mL
- Stability of Vitamin Es in AB White ([2]; stored at 8° C., 2 days): 12.31 µg/mL
- Stability of Vitamin Es in AB White ([2]; stored at 8° C., 3 days): 11.94 µg/mL
- Stability of Vitamin Es in AB White ([2]; stored at 8° C., 5 days): 11.44 µg/mL
- Stability of Vitamin Es in AB White ([2]; stored at 8° C., 8 days): 11.48 µg/mL
- Stability of Vitamin Es in AB White ([2]; stored at 8° C., 9 days): 12.08 µg/mL
- Stability of Vitamin Es in AB White ([2]; stored at 8° C., 10 days): 12.28 µg/mL
- Stability of Vitamin Es in AB White ([2]; stored at 8° C., 11 days): 11.94 µg/mL
- Stability of Vitamin Es in AB White ([2]; stored at 8° C., 12 days): 12.41 µg/mL
- Stability of Vitamin Es in AB White ([2]; stored at 8° C., 15 days): 11.56 µg/mL
- Stability of Vitamin Es in AB White ([2]; stored at 8° C., 16 days): 12.09 µg/mL
- Stability of Vitamin Es in AB White ([2]; stored at 8° C., 17 days): 11.60 µg/mL
- Stability of Vitamin Es in AB White ([2]; stored at 8° C., 18 days): 11.59 µg/mL
- Stability of Vitamin Es in AB White ([2]; stored at 8° C., 19 days): 11.89 µg/mL
- Stability of Vitamin Es in AB White ([2]; stored at 8° C., 22 days): 11.81 µg/mL
- Stability of Vitamin Es in AB White ([2]; stored at 8° C., 23 days): 11.46 µg/mL
- Stability of Vitamin Es in AB White ([2]; stored at 8° C., 24 days): 11.75 µg/mL
- Stability of Vitamin Es in AB White ([2]; stored at 8° C., 25 days): 12.41 µg/mL
- Stability of Vitamin Es in AB White ([2]; stored at 8° C., 26 days): 11.64 µg/mL
- Stability of Vitamin Es in AB White ([2]; stored at 8° C., 29 days): 12.43 µg/mL
- Stability of Vitamin Es in AB White ([2]; stored at 8° C., 30 days): 11.78 µg/mL
- Stability of Vitamin Es in AB White ([2]; stored at 8° C., 60 days): 12.18 µg/mL
- Stability of Vitamin Es in AB White ([2]; stored at 8° C., 90 days): 11.33 µg/mL
- Stability of Vitamin Es in AB White ([2]; stored at 8° C., 120 days): 11.31 µg/mL
- Stability of Vitamin Es in AB White ([2]; stored at 8° C., 150 days): 12.29 µg/mL
- Stability of Vitamin Es in AB White ([2]; stored at 8° C., 180 days): 11.74 µg/mL
- Stability of Vitamin Es in AB White ([2]; stored at 8° C., 210 days): 11.40 µg/mL
- Stability of Vitamin Es in AB White ([2]; stored at 8° C., 240 days): 11.70 µg/mL
- Stability of Vitamin Es in AB White ([2]; stored at 8° C., 270 days): 11.24 µg/mL
- Stability of Vitamin Es in AB White ([2]; stored at 8° C., 300 days): 11.53 µg/mL
- Stability of Vitamin Es in AB White ([2]; stored at 8° C., 330 days): 11.81 µg/mL
- Stability of Vitamin Es in AB White ([2]; stored at 8° C., 360 days): 11.10 µg/mL
- Stability of Vitamin Es in AB White ([2]; stored at 8° C., 390 days): 11.34 µg/mL
- Stability of Vitamin Es in AB White ([2]; stored at 8° C., 420 days): 11.30 µg/mL
- Stability of Vitamin Es in AB White ([2]; stored at 8° C., 450 days): 11.28 µg/mL
- Stability of Vitamin Es in AB White ([2]; stored at 8° C., 480 days): 10.58 µg/mL
- Stability of Vitamin Es in AB White ([2]; stored at 8° C., 510 days): 10.83 µg/mL
- Stability of Vitamin Es in AB White ([2]; stored at 8° C., 540 days): 10.58 µg/mL
- Stability of Vitamin Es in AB White ([2]; stored at 8° C., 570 days): 10.93 µg/mL
- Stability of Vitamin Es in AB White ([2]; stored at 21-25° C., 0 days): 12.8 µg/mL
- Stability of Vitamin Es in AB White ([2]; stored at 21-25° C., 1 days): 12.6 µg/mL
- Stability of Vitamin Es in AB White ([2]; stored at 21-25° C., 2 days): 12.3 µg/mL
- Stability of Vitamin Es in AB White ([2]; stored at 21-25° C., 3 days): 12.0 µg/mL
- Stability of Vitamin Es in AB White ([2]; stored at 21-25° C., 5 days): 12.0 µg/mL
- Stability of Vitamin Es in AB White ([2]; stored at 21-25° C., 8 days): 11.9 µg/mL
- Stability of Vitamin Es in AB White ([2]; stored at 21-25° C., 9 days): 12.7 µg/mL
- Stability of Vitamin Es in AB White ([2]; stored at 21-25° C., 10 days): 12.5 µg/mL
- Stability of Vitamin Es in AB White ([2]; stored at 21-25° C., 11 days): 11.8 µg/mL
- Stability of Vitamin Es in AB White ([2]; stored at 21-25° C., 12 days): 11.6 µg/mL
- Stability of Vitamin Es in AB White ([2]; stored at 21-25° C., 15 days): 12.6 µg/mL
- Stability of Vitamin Es in AB White ([2]; stored at 21-25° C., 16 days): 11.7 µg/mL
- Stability of Vitamin Es in AB White ([2]; stored at 21-25° C., 17 days): 13.0 µg/mL
- Stability of Vitamin Es in AB White ([2]; stored at 21-25° C., 18 days): 12.9 µg/mL
- Stability of Vitamin Es in AB White ([2]; stored at 21-25° C., 19 days): 12.3 µg/mL
- Stability of Vitamin Es in AB White ([2]; stored at 21-25° C., 22 days): 12.2 µg/mL
- Stability of Vitamin Es in AB White ([2]; stored at 21-25° C., 23 days): 12.3 µg/mL
- Stability of Vitamin Es in AB White ([2]; stored at 21-25° C., 24 days): 12.5 µg/mL
- Stability of Vitamin Es in AB White ([2]; stored at 21-25° C., 25 days): 12.4 µg/mL
- Stability of Vitamin Es in AB White ([2]; stored at 21-25° C., 26 days): 12.2 µg/mL
- Stability of Vitamin Es in AB White ([2]; stored at 21-25° C., 29 days): 12.4 µg/mL
- Stability of Vitamin Es in AB White ([2]; stored at 21-25° C., 30 days): 12.0 µg/mL
- Stability of Vitamin Es in AB White ([2]; stored at 21-25° C., 60 days): 11.9 µg/mL
- Stability of Vitamin Es in AB White ([2]; stored at 21-25° C., 90 days): 11.9 µg/mL
- Stability of Vitamin Es in AB White ([2]; stored at 21-25° C., 120 days): 12.1 µg/mL
- Stability of Vitamin Es in AB White ([2]; stored at 21-25° C., 150 days): 12.7 µg/mL
- Stability of Vitamin Es in AB White ([2]; stored at 21-25° C., 180 days): 11.6 µg/mL
- Stability of Vitamin Es in AB White ([2]; stored at 21-25° C., 210 days): 11.5 µg/mL
- Stability of Vitamin Es in AB White ([2]; stored at 21-25° C., 240 days): 11.5 µg/mL
- Stability of Vitamin Es in AB White ([2]; stored at 21-25° C., 270 days): 11.2 µg/mL
- Stability of Vitamin Es in AB White ([2]; stored at 21-25° C., 300 days): 11.4 µg/mL
- Stability of Vitamin Es in AB White ([2]; stored at 21-25° C., 330 days): 11.3 µg/mL
- Stability of Vitamin Es in AB White ([2]; stored at 21-25° C., 360 days): 11.5 µg/mL
- Stability of Vitamin Es in AB White ([2]; stored at 21-25° C., 390 days): 11.3 µg/mL
- Stability of Vitamin Es in AB White ([2]; stored at 21-25° C., 420 days): 11.6 µg/mL
- Stability of Vitamin Es in AB White ([2]; stored at 21-25° C., 450 days): 11.5 µg/mL
- Stability of Vitamin Es in AB White ([2]; stored at 21-25° C., 480 days): 10.8 µg/mL
- Stability of Vitamin Es in AB White ([2]; stored at 21-25° C., 510 days): 10.9 µg/mL
- Stability of Vitamin Es in AB White ([2]; stored at 21-25° C., 540 days): 10.9 µg/mL
- Stability of Vitamin Es in AB White ([2]; stored at 21-25° C., 570 days): 10.6 µg/mL
